# “Also recorded” adds a separate entry of the source.
# Columns and labels:
# [1] = tested on: voltage-gated sodium channels; format: cell-based, mouse
# [2] = tested on: voltage-gated sodium channels; format: cell-based, mouse; remark: listed apart in the source
# [3] = tested on: Sin3A PAH1-REST interaction; test: Competitive ELISA, inhibition of PAH1-REST binding; design: species or system mouse; settings: peptide 0-100 μM pre-incubated 2 h, room temperature, GST-REST 2 μg/mL, mean ± s.d., n = 3
# Sin3A-REST interaction = test: Co-immunoprecipitation of Sin3A and REST from P19 cell lysates; format: biochemical, mouse; settings: peptide 0, 30, 60 μM, 2 h at 4 °C, anti-REST or anti-Sin3A immunoprecipitation, western blot, at least three experiments
# Procedure: We next examined whether the Mad1 and SAP25 peptides block the Sin3A-REST interaction. First, the ability of these peptides to inhibit the associations of PAH1 and PAH2 with REST was determined using ELISA. […] However, the Mad1 and SAP25 peptides had little effect on the respective PAH1-REST and PAH2-REST interactions. The cellular inhibitory activities of these peptides were then determined using an immunoprecipitation analysis. After incubating P19 cell lysates with several concentrations of SAP25 and MAD1 peptides, REST in the cell lysates was immunoprecipitated using the anti-REST antibody. The precipitates were probed using the anti-Sin3A antibody. […]
# Figure 5 Inhibitory effect of the SAP25 and Mad1 peptides on binding of Sin3A PAH1 or PAH2 to REST. […] Binding of GST-REST to PAH1 and PAH2 was measured using the anti-GST antibody and HRP conjugated secondary antibody (mean ± s.d., n = 3). […] Immunoprecipitation was performed with antibodies against (c) REST and (d) Sin3A, and the amount of co-precipitated proteins was then determined using western blot analysis. ‘Un’ indicates no treatment with a peptide. […]
# Fluorescence polarization assay […]
# After washing with TBST, GST-REST (2 µg/mL) was added to the wells and then incubated for 2 h. The bound GST-REST to PAH1 or PAH2 was detected by using anti-GST antibody […]
# [4] = tested on: Sin3A PAH2-REST interaction; test: Competitive ELISA, inhibition of PAH2-REST binding; design: species or system mouse; settings: peptide 0-100 μM pre-incubated 2 h, room temperature, GST-REST 2 μg/mL, mean ± s.d., n = 3
# [5] = tested on: mouse Sin3A PAH1 (residues 114–195); test: Fluorescence polarization binding to Sin3A PAH1; settings: 1 μM FITC-labeled peptide, PAH1 or PAH2 0-10 μM, 20 mM Tris-HCl, 150 mM NaCl, pH 7.5, 30 min, room temperature; ex 495/em 520 nm; mean ± s.d., n = 3
# Sin3A PAH1 = settings: SAP25 protein sequence 171–186, ref [35]; cited from earlier work
# From the text: (§1) If this proposal is correct, a synthetic inhibitor of Sin3A-REST interactions should promote neurogenesis of these cells. Previous studies have shown that the N-terminal PAH1 and PAH2 domains of Sin3A bind to the N-terminal region of REST[6].
# [6] = tested on: mouse Sin3A PAH2 (residues 295–385); test: Fluorescence polarization binding to Sin3A PAH2; settings: 1 μM FITC-labeled peptide, PAH1 or PAH2 0-10 μM, 20 mM Tris-HCl, 150 mM NaCl, pH 7.5, 30 min, room temperature; ex 495/em 520 nm; mean ± s.d., n = 3
# Sin3A PAH2 = settings: Mad1 protein sequence 6–21, ref [34]; cited from earlier work
# From the text: as §1
# P19 cells = test: Neuronal differentiation of P19 cells (immunocytochemistry, western blot, RT-PCR); format: cell-based, mouse; settings: 30 μM TAT, 10 days, Tuj1 antibody
compound,measurement,setting,value
"NC1=N[C@H](O)[C@H]2[C@H]3O[C@]4(O)O[C@@H]([C@@H](O)[C@@]2(N1)[C@@H]4O)[C@]3(O)CO [TTX, tetrodotoxin]",effect of TTX on action potentials elicited by current injections (in words),[1],almost completely blocked
same,effect of TTX on current injection-promoted action potentials (in words),[2],almost completely abrogated
AEMIALAGLLQMSQGEX [SAP25 peptide],inhibition of PAH1-REST binding (in words),[3],the level of inhibition of binding of PAH2 to REST by Mad1 was greater than that of SAP25 toward PAH1-REST interactions
same,inhibition of Sin3A-REST interaction (in words),Sin3A-REST interaction,Mad1 peptide exhibited a much greater ability to block interactions of Sin3A with REST than the SAP25 peptide
same,inhibition of PAH2-REST binding (in words),[4],little effect
same,binding to Sin3A PAH1 (in words),[5],bind PAH1 much more tightly than PAH2
same,Kd,Sin3A PAH1,134 nM
RMNIQMLLEAADYLERX [Mad1 peptide],inhibition of PAH1-REST binding (in words),[3],little effect
same,binding to Sin3A PAH2 (in words),[6],interact with PAH2 much more strongly than PAH1
same,inhibition of Sin3A-REST interaction (in words),Sin3A-REST interaction,much greater ability to block interactions of Sin3A with REST than the SAP25 peptide; also recorded: has inhibitory activity against REST-Sin3A interactions in cells
same,inhibition of PAH2-REST binding (in words),[4],the level of inhibition of binding of PAH2 to REST by Mad1 was greater than that of SAP25 toward PAH1-REST interactions
same,Kd,Sin3A PAH2,29 nM
YGRKKRRQRRR [TAT],"neuronal differentiation (in words), TAT control",P19 cells,did not affect neuronal differentiation

# Source: paper PMC5356016, “Suppression of Sin3A activity promotes differentiation of pluripotent cells into functional neurons” (Scientific Reports, 2017)
